Results taken from patent publication US8592421B2, “Cyclic bioisosters of purine system derivatives and a pharmaceutical composition based thereon” (priority 2003, dated 2013).

Tests used:
[1] = Morphine abstinence model: indicator enzymes ALT, AST, γ-GTP in blood plasma; settings: 20.0 mg/kg intramuscularly three times a day; for γ-GTP in blood plasma, Ci: control 6.261 ± 1.80; for ALT in blood plasma, Ci: control 106.76 ± 111.35; for AST in blood plasma, Ci: control 179.881 ± 11.94
Method: (§1) The experiments were carried out on rats in series of 7 animals on each compound according to the invention. Non-morphinized animal with not administered with compounds according to the invention were used as a control group. […] Then the rats were decapitated, the blood from somnolent arteries was collected in test tubes with solution EDTA as an anticoagulant, centrifuged at 1500 g for 15 minutes at 4° C.
To estimate possible hepatoprotective action of the compounds according to the invention under conditions of development of an oxidizing stress in the liver cells, effect of these compounds on the most important biochemical blood indexes, in particular, on the content in blood plasma of indicator enzyme of aspartateaminotransferase (AST), alanineaminotransferase (ALT), γ-glutamiletranspeptidase (γ-GTP) was investigated. The content of enzymes was estimated by their catalyzing activity in blood plasma.
The activity of AST, ALT and γ-GTP was determined by means of diagnostic sets DiaSys, Germany.

[2] = Morphine abstinence model: nitrites/nitrates NOX− in blood plasma, liver and brain; assay type: in vivo, rats Wistar; settings: 20.0 mg/kg intramuscularly; for Nitrites in liver: control 0.260 ± 0.023; for Nitrites in brain: Cortex of cerebrum: control 4.63 ± 0.29; for Nitrites in brain: Mesencephalon: control 5.66 ± 0.19; for Nitrites in brain: Hypothalamus: control 6.57 ± 0.50; for Nitrites in blood plasma: control 18.30 ± 2.14
Method: as §1
To estimate the intensity of metabolism of nitrogen oxide in rats, quantitative determination of stable metabolites of nitrogen oxide—nitrites and nitrates NOX^− in the blood plasma, supernatanates of the liver and thymus gland, a study was conducted by a spectrometric method, and in the brain supernatanates by a […] method.
The spectrometric method is based the reaction of nitrites with the Griss reagent (a mixture of 2% solution of sulfanilamide and 0.2% N-(1-naphthyl)ethylene diamine. At the first step the nitrite reacts with sulfanilamide with formation of diazonium salt, and then with the second component to form azo dye with an adsorption maximum at 540 nm. For reduction of nitrates into nitrites, a fermentative method was used with bacterial reductase nitrate (Grisham M. B. et al., 1995). The samples of plasma and supernathant of the liver deproteinizated at 100° C. for 5 minutes incubated for 30 minutes at 37° C. in 50.0 mM of HEPES pH 7.4 in the presence of 0.2 unit/ml of Aspergillus reductase nitrate, 5.0 mkM of FAD and 0.1 mM of NAD-Ph. At the end of the reaction lactate dehydrogenase and pyruvate were added for isolation of NAD-Ph interfering with the Griss reaction. Then the Griss reagent was added and after 10-minute incubation the light absorption of the samples was measured at 540 nm. To amount of NOX^− was calculated using sodium nitrate as a standard.
The fluorometric method is based on calculation of the nitrite level by the intensity fluorescence of 2,3-diaminonaphthotriazole, a product of reaction of 2,3-diaminonaphthalene (DAN) and nitrite in an acidic medium (Misko T. R., Schilling R. J., Salvemini D. et al. “A fluorometric assay for the measurement of nitrite of biological samples”. Anal. Biochem., 1993, v. 214, p. 11-16). The brain supernatants deproteinizated at 100° C. were placed in a nitrite regenerating system containing 0.125 unit/ml of nitrate reductases, 25 mkM NADPh and 25 mkM FAD prepared in a 20-mM Tris-HCl buffer with pH 7.6 and incubated for 30 minutes at 37° C. The lactate dehydrogenase/pyruvate system was used for oxidation of the NADPh. Then 316 mkM of the DAN solution in 0.62 M of hydrochloric acids were added and the mixture was incubated for 10 minutes in darkness.
280 mM of NaOH were added for stabilization of the fluorescence of the formed 2,3-diaminonaphthotriazole. The fluorescence intensity was measured in the spectrofluorimeter Hitachi F-3000 at a wavelength of excitation of 365 nm and an emission of 405 nm. The concentration of NOX^− in the brain was calculated by means of a standard solution of sodium nitrate.

Structure (SMILES) | γ-GTP in blood plasma, Ci ([1]; Control + compound) [mE/l] | ALT in blood plasma, Ci ([1]; Control + compound) [mE/l] | AST in blood plasma, Ci ([1]; Control + compound) [mE/l] | γ-GTP in blood plasma, Ci ([1]; control + Morphine + Compound) [mE/l] | ALT in blood plasma, Ci ([1]; control + Morphine + Compound) [mE/l] | AST in blood plasma, Ci ([1]; control + Morphine + Compound) [mE/l] | Nitrites in liver ([2]; Control + Compound) | Nitrites in brain: Cortex of cerebrum ([2]; Control + Compound) | Nitrites in brain: Mesencephalon ([2]; Control + Compound) | Nitrites in brain: Hypothalamus ([2]; Control + Compound) | Nitrites in blood plasma ([2]; Control + Compound) [mkmol/ml] | Nitrites in liver ([2]; Control + Morphine + compound) | Nitrites in brain: Cortex of cerebrum ([2]; Control + Morphine + compound) | Nitrites in brain: Mesencephalon ([2]; Control + Morphine + compound) | Nitrites in brain: Hypothalamus ([2]; Control + Morphine + compound) | Nitrites in blood plasma ([2]; Control + Morphine + compound) [mkmol/ml]
O=c1[nH][nH]c(=O)c2ncccc12.[Li] [Compound 6, lithium salt of pyrido[2,3-d]-6H-pyridazine-5,8-dione] | 8.27 ± 2.12 | 114.5 ± 1.13 | 176.18 ± 3.26 | 12.52 ± 2.02 | 122.44 ± 2.01 | 198.34 ± 9.32 | 0.245 ± 0.010 nmol/mg of protein | 4.59 ± 0.44 nmol/mg of protein | 7.01 ± 0.82 nmol/mg of protein | 6.94 ± 0.67 nmol/mg of protein | 15.83 ± 1.21 | 0.294 ± 0.02 nmol/mg of protein | 5.12 ± 0.18 nmol/mg of protein | 5.76 ± 0.94 nmol/mg of protein | 6.72 ± 0.94 nmol/mg of protein | 15.86 ± 1.20
O=c1[nH][nH]c(=O)c2nccnc12.[Li] [Compound 25, lithium salt of pyrazine[2,3-d]-6H-pyridazine-5,8-dione] | 7.57 ± 1.93 | 115.27 ± 1.09 | 177.34 ± 6.13 | 11.37 ± 1.54 | 121.96 ± 3.4 | 196.46 ± 15.34 | 0.307 ± 0.012 nmol/mg of protein | 4.47 ± 0.43 nmol/mg of protein | 6.98 ± 1.02 nmol/mg of protein | 6.87 ± 0.80 nmol/mg of protein | 17.10 ± 2.05 | 0.287 ± 0.01 nmol/mg of protein | 4.91 ± 0.32 nmol/mg of protein | 5.91 ± 0.74 nmol/mg of protein | 6.67 ± 0.79 nmol/mg of protein | 16.78 ± 2.11
